Reference: article PMC6396489 (Cell Communication and Signaling : CCS, 2019)

Tests used:
[1] = target: T1, Shp1 S118A/R138E/S140A mutant (Homo sapiens, UniProt P29350, R136E/S116A/S138A); assay: Isothermal titration calorimetry, Shp1 S118A/R138E/S140A mutant; type: binding; conditions: very small heat effect, value not with sufficient confidence
T1 construct: a tailless-form of Shp1 (residues 1–529) has previously been used [25] and it is used also in this study; 6xHis (N); made in house; host or cells: E. coli BL21(DE3)
T1 sequence (P29350 1-529 isoform P29350-3 S118A/R138E/S140A): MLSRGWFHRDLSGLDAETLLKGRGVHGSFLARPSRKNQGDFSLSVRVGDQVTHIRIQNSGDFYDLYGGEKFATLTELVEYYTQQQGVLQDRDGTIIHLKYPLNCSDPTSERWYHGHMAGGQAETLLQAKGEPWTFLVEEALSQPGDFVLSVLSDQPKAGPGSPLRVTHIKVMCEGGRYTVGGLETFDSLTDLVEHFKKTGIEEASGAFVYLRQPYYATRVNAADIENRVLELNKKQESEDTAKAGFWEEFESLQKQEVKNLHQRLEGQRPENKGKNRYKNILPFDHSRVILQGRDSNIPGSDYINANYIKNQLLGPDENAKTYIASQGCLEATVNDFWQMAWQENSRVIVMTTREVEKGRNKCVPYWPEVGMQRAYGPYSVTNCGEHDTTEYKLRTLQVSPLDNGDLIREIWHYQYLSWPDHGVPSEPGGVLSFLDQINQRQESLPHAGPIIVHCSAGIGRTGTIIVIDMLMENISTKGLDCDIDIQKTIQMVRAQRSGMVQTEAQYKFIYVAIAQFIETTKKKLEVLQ
Protocol: ITC measurements were performed by using a Nano-ITC III (TA instruments, New Castle, DE, USA) with a reaction cell volume of 1 ml kept at 25 °C. A protein solution of 10 μM was titrated into the calorimetric cell with a solution of 50–100 μM of the ligand GroPIns4P (Ins4P) in the syringe. A sequence of 16 injections of 15 μL volume was programmed with a stirring speed of 250 rpm at 500 s intervals. Protein samples were prepared with protein solutions at 25 °C in 20 mM Tris buffer pH 7.4 with 50 mM NaCl and 1 mM TCEP. To minimise the differences in buffer composition and pH between cell and syringe, both ligand and protein solutions were prepared with the same batch of buffer. The heat of dilution of the GroPIns4P into the buffer solution was measured in a separate experiment and appropriate corrections were made. The heat evolved after each ligand injection was obtained from the integral of the calorimetric signal. Raw data were integrated, corrected for non-specific heats and normalized for concentration. The equilibrium dissociation constant (KD), binding enthalpy (ΔbH) and binding stoichiometry (n) were obtained by nonlinear regression of the experimental data using a model of independent binding sites, by means of the NanoAnalyze software. Experiments were performed in duplicate.

NIH3T3 cells = assay: Immunofluorescence analysis for membrane ruffling; type: cell-based
Protocol: NIH3T3 and Raw 264.7 cells were cultured in DMEM supplemented with 2 mM L-glutamine, 50 U/mL penicillin, […] streptomycin, and 10% CS or heat-inactivated FBS (30 min at 55 °C), respectively. NIH3T3 cells were transfected with different plasmids using the Lipofectamine LTX/plus reagent according to the manufacturer’s instructions. For immunofluorescence experiments, NIH3T3 cells were seeded onto glass coverslips in 24-well plates at a concentration suitable for 70% confluence without transfection or 50% confluence in the case of Lipofectamine-based cell transfection. In the latter, approximately 24 h after seeding, NIH3T3 cells were transiently transfected with different plasmids with the Lipofectamine LTX/plus reagent following the manufacturer’s instructions. Before treatments, NIH3T3 cells were serum-starved in DMEM with 2 mM glutamine, 50 U/mL penicillin and streptomycin for 16–20 h. The cells were then treated with different stimuli and/or inhibitors, as indicated in the text and/or Figure legends. Addition of exogenous GroPIns4P was at 50 μM (unless otherwise indicated), a concentration eliciting an intracellular concentration of about 1.5 μM, as calculated from the Nernst equation (with T = 300 K, z = − 3, and Veq = − 30 mV, an average value for cultured, non-excitable cells).
For ruffle assessment after treatments, immunofluorescence labelling and morphological analysis of the cells were performed as previously described in a double-blind fashion. In brief, the assessment was based on a null score (zero) for the absence of the feature, followed by a score of one or two according to the level of response of each individual cell, where one indicate that ruffling was confined to one area of the cell (< 25% of the cell circumference), and two indicate that two or more discrete areas of the cell contained ruffles. The cell phenotypes were quantified by counting 150 cells in each sample. The data were then expressed as percentage scores (±SD) for each treatment response compared with its respective control. Scoring of the control cells was performed in the same way to evaluate the presence of the features of interest in untreated cells.

[2] = target: T1, Shp1 S118A/R138E/S140A mutant; assay: Trp fluorescence emission spectroscopy of Shp1 S118A/R138E/S140A mutant; type: binding; conditions: S118A/R138E/S140A vs wild type
Protocol: The absorption spectra of Shp1 were recorded using a Varian Cary 1 spectrophotometer. Steady-state fluorescence emission measurements were performed with a K2 fluorometer (ISS, Champaign, IL, USA) equipped with a two-cell temperature-controlled sample holder. To selectively excite Trp residues, the excitation wavelength was set at 295 nm with a slit width of 1 nm. To avoid the inner-filter effect, all steady-state fluorescence measurements were performed on Shp1 with optical densities at 295 nm less than 0.1 OD. All measurements were made at 25 °C with the temperature of the samples determined in the cuvette with an accuracy of ±0.2 °C. For each experiment, the Shp1 concentration was fixed at 1.2 μM, while GroPIns4P was varied from 0.0 to 5.0 μM. Thus, a 500 μL solution containing 1.2 μM Shp1 dissolved in PBS pH 7.4 was titrated by successive additions of GroPIns4P (dissolved in PBS buffer, pH 7.4). After each addition, the samples were incubated for 2 min and fluorescence emission spectra were recorded between 310 and 410 nm in triplicate. To exclude the influence of sample dilution, fluorescence titration experiments were performed by adding the same amount of PBS buffer in the total volume (500 μL).

KD relative to Shp1 WT [1]: about one order of magnitude higher
decrease of binding efficiency of the mutated protein [2]: up to 50%
SMILES: O=P(O)(O)OC1C(O)C(O)C(OP(=O)(O)OCC(O)CO)C(O)C1O (stereo not drawn) [GroPIns4P, glycerophosphoinositol 4-phosphate]
increase in peripheral ruffles versus the control (NIH3T3 cells; 50 μM GroPIns4P for 5 min): 2.5–3 fold
effect on ruffle formation (NIH3T3 cells; cells expressing Shp1 S118A/R138E/S140A, 50 μM GroPIns4P): significantly inhibited
membrane ruffle formation (NIH3T3 cells; cells over-expressing Shp1-C455S, 50 μM GroPIns4P): did not lead to membrane ruffle formation
actin ruffle formation (NIH3T3 cells; cells over-expressing Shp1 S12A/R32E/S34A, 50 μM GroPIns4P): resulted in the induction of actin ruffles
